Results taken from ChEMBL document CHEMBL5303573, “Mapping human microbiome drug metabolism by gut bacteria and their genes” (Nature, 2019).

Tests used:
[1] = The drug is tested on Bacteroides fragilis strain: HMW610 for biotransformation. The drug concentrations were measured before and after a 12-h incubation by liquid-chromatography-coupled mass spectrometry (LC–MS); conditions: 2 µM
[2] = The drug is tested on Collinsella intestinalis strain: DSM13280 for biotransformation. The drug concentrations were measured before and after a 12-h incubation by liquid-chromatography-coupled mass spectrometry (LC–MS); conditions: 2 µM
[3] = The drug is tested on Clostridium sporogenes strain: ATCC15579 for biotransformation. The drug concentrations were measured before and after a 12-h incubation by liquid-chromatography-coupled mass spectrometry (LC–MS); conditions: 2 µM
[4] = limosilactobacillus reuteri cf48-3a, 12 h, 2 µM
Description: The drug is tested on Lactobacillus reuteri CF48-3A strain: BEI HM-102 for biotransformation. The drug concentrations were measured before and after a 12-h incubation by liquid-chromatography-coupled mass spectrometry (LC–MS)

[5] = The drug is tested on Dorea formicigenerans strain: ATCC27755 for biotransformation. The drug concentrations were measured before and after a 12-h incubation by liquid-chromatography-coupled mass spectrometry (LC–MS); conditions: 2 µM
[6] = bacteroides intestinalis, 12 h, 2 µM
Description: The drug is tested on Bacteroides intestinalis strain: DSM17393 for biotransformation. The drug concentrations were measured before and after a 12-h incubation by liquid-chromatography-coupled mass spectrometry (LC–MS)

[7] = The drug is tested on Blautia luti strain: DSM14534 for biotransformation. The drug concentrations were measured before and after a 12-h incubation by liquid-chromatography-coupled mass spectrometry (LC–MS); format: ADME; parameters: dose 2 uM, timepoint 0 vs 12 hours; conditions: 2 µM
[8] = The drug is tested on Ruminococcus gnavus strain: ATCC29149 for biotransformation. The drug concentrations were measured before and after a 12-h incubation by liquid-chromatography-coupled mass spectrometry (LC–MS); conditions: mediterraneibacter gnavus, 2 µM
[9] = The drug is tested on Bacteroides coprophilus strain: DSM18228 for biotransformation. The drug concentrations were measured before and after a 12-h incubation by liquid-chromatography-coupled mass spectrometry (LC–MS); conditions: 2 µM
[10] = The drug is tested on Clostridium asparagiforme strain: DSM15981 for biotransformation. The drug concentrations were measured before and after a 12-h incubation by liquid-chromatography-coupled mass spectrometry (LC–MS); format: ADME; parameters: dose 2 uM, timepoint 0 vs 12 hours; conditions: enterocloster asparagiformis, 2 µM
[11] = bacteroides stercoris, 12 h, 2 µM
Description: The drug is tested on Bacteroides stercoris strain: ATCC43183 for biotransformation. The drug concentrations were measured before and after a 12-h incubation by liquid-chromatography-coupled mass spectrometry (LC–MS)

[12] = segatella copri, 12 h, 2 µM
Description: The drug is tested on Prevotella copri strain: DSM18205 for biotransformation. The drug concentrations were measured before and after a 12-h incubation by liquid-chromatography-coupled mass spectrometry (LC–MS)

[13] = roseburia intestinalis, 12 h, 2 µM
Description: The drug is tested on Roseburia intestinalis strain: L1-82 for biotransformation. The drug concentrations were measured before and after a 12-h incubation by liquid-chromatography-coupled mass spectrometry (LC–MS)

[14] = The drug is tested on Anaerococcus hydrogenalis strain: DSM7454 for biotransformation. The drug concentrations were measured before and after a 12-h incubation by liquid-chromatography-coupled mass spectrometry (LC–MS); conditions: 2 µM
[15] = akkermansia muciniphila, 12 h, 2 µM
Description: The drug is tested on Akkermansia muciniphila strain: ATCC BAA-835 for biotransformation. The drug concentrations were measured before and after a 12-h incubation by liquid-chromatography-coupled mass spectrometry (LC–MS)

[16] = bacteroides thetaiotaomicron, 12 h, 2 µM
Description: The drug is tested on Bacteroides thetaiotaomicron strain: 7330 for biotransformation. The drug concentrations were measured before and after a 12-h incubation by liquid-chromatography-coupled mass spectrometry (LC–MS)

[17] = The drug is tested on Bacteroides finegoldii strain: DSM17565 for biotransformation. The drug concentrations were measured before and after a 12-h incubation by liquid-chromatography-coupled mass spectrometry (LC–MS); conditions: 2 µM
[18] = The drug is tested on Eubacterium ventriosum strain: ATCC27560 for biotransformation. The drug concentrations were measured before and after a 12-h incubation by liquid-chromatography-coupled mass spectrometry (LC–MS); format: ADME; parameters: dose 2 uM, timepoint 0 vs 12 hours; conditions: 2 µM
[19] = The drug is tested on Coprococcus comes strain: ATCC27758 for biotransformation. The drug concentrations were measured before and after a 12-h incubation by liquid-chromatography-coupled mass spectrometry (LC–MS); format: ADME; parameters: dose 2 uM, timepoint 0 vs 12 hours; conditions: 2 µM

SMILES	Bacterial Biotransformation [1]	Bacterial Biotransformation [2]	Bacterial Biotransformation [3]	Bacterial Biotransformation [4]	Bacterial Biotransformation [5]	Bacterial Biotransformation [6]	Bacterial Biotransformation [7]	Bacterial Biotransformation [8]	Bacterial Biotransformation [9]	Bacterial Biotransformation [10]	Bacterial Biotransformation [11]	Bacterial Biotransformation [12]	Bacterial Biotransformation [13]	Bacterial Biotransformation [14]	Bacterial Biotransformation [15]	Bacterial Biotransformation [16]	Bacterial Biotransformation [17]	Bacterial Biotransformation [18]	Bacterial Biotransformation [19]
NS(=O)(=O)c1cc2c(cc1Cl)N=C(CSCc1ccccc1)NS2(=O)=O [BENZTHIAZIDE]	Compound NOT metabolized	Compound NOT metabolized	Compound NOT metabolized	Compound NOT metabolized	Compound NOT metabolized	Compound NOT metabolized	Compound NOT metabolized	Compound NOT metabolized	Compound NOT metabolized	Compound NOT metabolized	Compound NOT metabolized	Compound NOT metabolized	Compound NOT metabolized	Compound NOT metabolized	Compound NOT metabolized	Compound NOT metabolized	–	–	–
CC(C)NCC(O)COc1ccc(CCOCC2CC2)cc1 (stereo not drawn) [BETAXOLOL]	Compound NOT metabolized	Compound NOT metabolized	Compound NOT metabolized	Compound NOT metabolized	Compound NOT metabolized	Compound NOT metabolized	Compound NOT metabolized	Compound NOT metabolized	Compound NOT metabolized	Compound NOT metabolized	Compound NOT metabolized	–	Compound NOT metabolized	Compound NOT metabolized	Compound NOT metabolized	Compound NOT metabolized	Compound NOT metabolized	Compound NOT metabolized	Compound NOT metabolized
CN1C(=O)CCS(=O)(=O)C1c1ccc(Cl)cc1 (stereo not drawn) [CHLORMEZANONE]	Compound NOT metabolized	Compound NOT metabolized	Compound NOT metabolized	Compound NOT metabolized	–	Compound NOT metabolized	–	–	Compound NOT metabolized	Compound metabolized	–	Compound NOT metabolized	–	Compound NOT metabolized	Compound NOT metabolized	–	Compound NOT metabolized	Compound NOT metabolized	–
CN1C[C@H](C(=O)N[C@]2(C)O[C@@]3(O)[C@@H]4CCCN4C(=O)[C@H](Cc4ccccc4)N3C2=O)C=C2c3cccc4[nH]cc(c34)C[C@H]21.CN1C[C@H](C(=O)N[C@]2(C)O[C@@]3(O)[C@@H]4CCCN4C(=O)[C@H](Cc4ccccc4)N3C2=O)C=C2c3cccc4[nH]cc(c34)C[C@H]21.O=C(O)C(O)C(O)C(=O)O [ERGOTAMINE TARTRATE]	–	Compound NOT metabolized	Compound metabolized	Compound metabolized	Compound NOT metabolized	Compound metabolized	Compound metabolized	Compound metabolized	Compound metabolized	Compound metabolized	Compound metabolized	Compound metabolized	Compound NOT metabolized	Compound metabolized	Compound metabolized	Compound metabolized	Compound metabolized	Compound NOT metabolized	–
